According to ChEMBL document CHEMBL5291721, “A preclinical secondary pharmacology resource illuminates target-adverse drug reaction associations of marketed drugs” (Nat Commun, 2023):

Assays:
Adenosine receptor A1 = molecular target: T1, Adenosine receptor A1 (Homo sapiens, UniProt P30542)
T1 sequence (P30542 whole entry): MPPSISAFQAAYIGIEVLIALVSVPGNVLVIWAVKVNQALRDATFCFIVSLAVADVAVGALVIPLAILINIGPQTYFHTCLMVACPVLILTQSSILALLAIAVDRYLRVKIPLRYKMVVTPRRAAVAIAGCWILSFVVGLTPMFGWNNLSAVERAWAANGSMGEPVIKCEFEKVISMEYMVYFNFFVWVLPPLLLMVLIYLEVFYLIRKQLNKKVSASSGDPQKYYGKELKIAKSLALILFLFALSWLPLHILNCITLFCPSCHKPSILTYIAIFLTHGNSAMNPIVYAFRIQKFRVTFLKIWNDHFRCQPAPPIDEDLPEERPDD

[1] = molecular target: T2, Alpha-2A adrenergic receptor (Homo sapiens, UniProt P08913); type: functional, cell-based
T2 sequence (P08913 whole entry): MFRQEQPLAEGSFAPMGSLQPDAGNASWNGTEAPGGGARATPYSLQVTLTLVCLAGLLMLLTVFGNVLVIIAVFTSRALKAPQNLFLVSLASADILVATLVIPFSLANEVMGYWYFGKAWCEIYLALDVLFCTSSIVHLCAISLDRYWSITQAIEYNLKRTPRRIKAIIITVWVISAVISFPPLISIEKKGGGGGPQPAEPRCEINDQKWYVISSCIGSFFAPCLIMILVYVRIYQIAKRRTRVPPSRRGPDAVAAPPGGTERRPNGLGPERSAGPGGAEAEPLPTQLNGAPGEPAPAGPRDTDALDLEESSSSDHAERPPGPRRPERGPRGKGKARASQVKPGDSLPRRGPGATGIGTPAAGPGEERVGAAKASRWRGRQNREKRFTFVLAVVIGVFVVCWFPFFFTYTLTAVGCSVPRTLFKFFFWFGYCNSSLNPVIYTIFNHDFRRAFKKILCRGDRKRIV

[2] = molecular target: T3, Alpha-2C adrenergic receptor (Homo sapiens, UniProt P18825); type: functional
T3 sequence (P18825 whole entry): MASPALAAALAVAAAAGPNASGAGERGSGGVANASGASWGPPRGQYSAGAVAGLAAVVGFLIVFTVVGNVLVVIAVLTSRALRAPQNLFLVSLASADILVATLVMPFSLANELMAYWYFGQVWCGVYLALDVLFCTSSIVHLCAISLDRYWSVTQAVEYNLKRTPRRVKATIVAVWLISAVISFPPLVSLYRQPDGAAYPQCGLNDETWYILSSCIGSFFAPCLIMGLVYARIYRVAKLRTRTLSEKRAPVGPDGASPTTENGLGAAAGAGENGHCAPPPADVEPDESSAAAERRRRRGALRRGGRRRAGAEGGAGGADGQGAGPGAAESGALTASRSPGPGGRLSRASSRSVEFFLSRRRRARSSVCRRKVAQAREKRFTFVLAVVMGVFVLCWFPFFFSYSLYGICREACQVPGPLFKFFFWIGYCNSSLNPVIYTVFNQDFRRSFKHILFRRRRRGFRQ

[3] = molecular target: Beta-2 adrenergic receptor (Homo sapiens, UniProt P07550)
Sequence of Beta-2 adrenergic receptor (P07550 whole entry): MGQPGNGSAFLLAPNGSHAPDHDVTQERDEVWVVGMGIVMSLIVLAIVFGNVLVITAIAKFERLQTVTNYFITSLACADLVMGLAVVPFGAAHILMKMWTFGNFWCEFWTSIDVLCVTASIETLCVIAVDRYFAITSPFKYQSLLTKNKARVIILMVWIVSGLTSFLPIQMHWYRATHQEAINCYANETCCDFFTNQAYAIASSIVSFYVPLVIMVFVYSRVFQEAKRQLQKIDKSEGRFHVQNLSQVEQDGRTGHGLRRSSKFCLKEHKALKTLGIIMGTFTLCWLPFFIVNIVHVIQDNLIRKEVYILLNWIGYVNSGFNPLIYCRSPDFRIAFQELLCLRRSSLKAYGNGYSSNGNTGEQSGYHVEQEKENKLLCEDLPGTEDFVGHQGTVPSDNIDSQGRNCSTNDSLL

Vasopressin V2 receptor = Vasopressin V2 receptor (Homo sapiens, UniProt P30518)
Sequence of Vasopressin V2 receptor (P30518 whole entry): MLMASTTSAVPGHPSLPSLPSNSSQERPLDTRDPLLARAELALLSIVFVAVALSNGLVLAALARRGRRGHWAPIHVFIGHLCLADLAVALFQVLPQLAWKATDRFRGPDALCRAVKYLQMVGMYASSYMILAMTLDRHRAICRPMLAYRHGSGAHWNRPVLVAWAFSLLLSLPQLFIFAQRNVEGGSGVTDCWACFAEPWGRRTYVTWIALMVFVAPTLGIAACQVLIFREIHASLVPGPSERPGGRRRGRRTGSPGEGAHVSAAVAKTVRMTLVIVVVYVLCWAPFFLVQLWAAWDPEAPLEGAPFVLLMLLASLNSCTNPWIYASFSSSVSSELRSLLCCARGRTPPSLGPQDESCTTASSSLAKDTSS

[4] = molecular target: T4, Muscarinic acetylcholine receptor M2 (Homo sapiens, UniProt P08172); type: functional, cell-based
T4 sequence (P08172 whole entry): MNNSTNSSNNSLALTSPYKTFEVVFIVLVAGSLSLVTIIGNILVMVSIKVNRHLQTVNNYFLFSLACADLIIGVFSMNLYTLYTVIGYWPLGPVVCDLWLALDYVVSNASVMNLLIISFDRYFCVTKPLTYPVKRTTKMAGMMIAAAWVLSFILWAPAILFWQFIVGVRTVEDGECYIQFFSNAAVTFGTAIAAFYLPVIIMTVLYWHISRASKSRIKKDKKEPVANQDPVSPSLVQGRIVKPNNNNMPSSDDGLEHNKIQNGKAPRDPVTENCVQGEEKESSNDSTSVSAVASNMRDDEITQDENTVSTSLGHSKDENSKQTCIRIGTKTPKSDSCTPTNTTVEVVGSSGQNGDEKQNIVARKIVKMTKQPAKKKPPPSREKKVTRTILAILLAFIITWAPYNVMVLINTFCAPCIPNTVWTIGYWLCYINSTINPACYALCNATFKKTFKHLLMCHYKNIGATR

[5] = molecular target: Growth hormone secretagogue receptor type 1 (Homo sapiens, UniProt Q92847)
Sequence of Growth hormone secretagogue receptor type 1 (Q92847 whole entry): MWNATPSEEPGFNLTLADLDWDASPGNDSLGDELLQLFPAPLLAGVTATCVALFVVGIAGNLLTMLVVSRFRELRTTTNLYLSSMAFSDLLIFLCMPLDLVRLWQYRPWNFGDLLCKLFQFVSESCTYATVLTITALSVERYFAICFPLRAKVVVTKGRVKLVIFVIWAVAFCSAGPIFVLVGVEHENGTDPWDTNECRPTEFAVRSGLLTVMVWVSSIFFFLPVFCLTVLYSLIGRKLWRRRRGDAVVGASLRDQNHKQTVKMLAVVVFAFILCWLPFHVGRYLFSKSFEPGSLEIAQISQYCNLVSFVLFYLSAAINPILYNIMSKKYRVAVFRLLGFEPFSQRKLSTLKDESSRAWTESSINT

[6] = molecular target: Glutamate receptor ionotropic, NMDA 1 (Rattus norvegicus, UniProt P35439)
Progesterone receptor = molecular target: T5, Progesterone receptor (Homo sapiens, UniProt P06401); type: functional
T5 sequence (P06401 whole entry): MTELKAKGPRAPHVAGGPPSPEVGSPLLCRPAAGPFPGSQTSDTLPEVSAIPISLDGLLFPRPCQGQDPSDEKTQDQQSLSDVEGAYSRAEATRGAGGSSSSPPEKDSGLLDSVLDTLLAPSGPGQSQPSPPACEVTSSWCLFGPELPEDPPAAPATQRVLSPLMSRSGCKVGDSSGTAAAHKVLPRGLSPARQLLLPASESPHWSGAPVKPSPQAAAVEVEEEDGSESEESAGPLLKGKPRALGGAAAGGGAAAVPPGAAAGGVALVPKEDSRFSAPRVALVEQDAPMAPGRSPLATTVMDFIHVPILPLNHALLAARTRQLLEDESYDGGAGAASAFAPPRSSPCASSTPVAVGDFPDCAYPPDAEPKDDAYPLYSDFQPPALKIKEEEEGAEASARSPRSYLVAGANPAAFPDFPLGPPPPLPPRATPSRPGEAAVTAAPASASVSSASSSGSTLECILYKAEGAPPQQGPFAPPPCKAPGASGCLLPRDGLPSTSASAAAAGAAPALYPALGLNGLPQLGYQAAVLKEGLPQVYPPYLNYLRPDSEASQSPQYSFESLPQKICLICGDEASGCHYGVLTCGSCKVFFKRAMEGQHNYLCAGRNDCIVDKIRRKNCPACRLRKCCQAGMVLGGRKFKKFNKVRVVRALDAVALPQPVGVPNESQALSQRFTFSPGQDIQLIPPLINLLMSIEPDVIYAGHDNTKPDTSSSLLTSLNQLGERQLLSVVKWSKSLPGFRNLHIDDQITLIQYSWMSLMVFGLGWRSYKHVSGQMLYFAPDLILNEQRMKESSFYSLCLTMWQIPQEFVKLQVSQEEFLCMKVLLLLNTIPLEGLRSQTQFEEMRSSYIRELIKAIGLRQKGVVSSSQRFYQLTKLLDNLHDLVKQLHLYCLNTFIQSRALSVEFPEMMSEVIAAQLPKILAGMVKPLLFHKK
Further: assay procedure not described here.

C=C[C@@]1(C)CC(=O)[C@]2(O)[C@@]3(C)[C@@H](O)CCC(C)(C)[C@@H]3[C@H](O)[C@H](OC(C)=O)[C@@]2(C)O1 [COLFORSIN]
AC50 (Adenosine receptor A1): > 30 µM
AC50 [1]: 4.3 µM
AC50 [2]: > 30 µM
AC50 [3]: > 30 µM
AC50 (Vasopressin V2 receptor): > 30 µM
AC50 [4]: 1.9 µM
AC50 [5]: > 30 µM
AC50 [6]: > 30 µM
AC50 (Progesterone receptor): > 30 µM

CCN(CC)C(=O)Nc1ccc(OCC(O)CNC(C)(C)C)c(C(C)=O)c1 (centres undefined) [CELIPROLOL]
AC50 (Adenosine receptor A1): > 30 µM
AC50 [1]: > 30 µM
AC50 [2]: > 30 µM
AC50 [3]: 4.6 µM
AC50 (Vasopressin V2 receptor): > 30 µM
AC50 [4]: > 30 µM
AC50 [5]: > 30 µM
AC50 [6]: > 30 µM
AC50 (Progesterone receptor): > 30 µM

O=C1CN=C(c2ccccn2)c2cc(Br)ccc2N1 [BROMAZEPAM]
AC50 (Adenosine receptor A1): > 10 µM
AC50 [1]: > 10 µM
AC50 [2]: > 10 µM
AC50 [3]: > 10 µM
AC50 (Vasopressin V2 receptor): > 10 µM
AC50 [4]: > 10 µM
AC50 [5]: > 10 µM
AC50 [6]: > 10 µM
AC50 (Progesterone receptor): > 10 µM

COc1ccc2nc3cc(Cl)ccc3c(Nc3cc(CN4CCCC4)c(O)c(CN4CCCC4)c3)c2n1 [PYRONARIDINE]
AC50 (Adenosine receptor A1): > 30 µM
AC50 [1]: > 30 µM
AC50 [2]: 21 µM
AC50 [3]: > 30 µM
AC50 (Vasopressin V2 receptor): 18 µM
AC50 [4]: > 30 µM
AC50 [5]: 26 µM
AC50 [6]: > 30 µM
AC50 (Progesterone receptor): 14 µM

CCCCCC(=O)O[C@]1(C(C)=O)CC[C@H]2[C@@H]3CCC4=CC(=O)CC[C@]4(C)[C@H]3CC[C@@]21C [HYDROXYPROGESTERONE CAPROATE]
AC50 (Adenosine receptor A1): > 30 µM
AC50 [1]: > 30 µM
AC50 [2]: > 30 µM
AC50 [3]: > 30 µM
AC50 (Vasopressin V2 receptor): > 30 µM
AC50 [4]: > 30 µM
AC50 [5]: > 30 µM
AC50 [6]: > 30 µM
AC50 (Progesterone receptor): 0.003 µM

CC(=O)[C@@]1(O)CC[C@H]2[C@@H]3C=C(Cl)C4=CC(=O)[C@@H]5C[C@@H]5[C@]4(C)[C@H]3CC[C@@]21C [CYPROTERONE]
AC50 (Adenosine receptor A1): > 10 µM
AC50 [1]: > 10 µM
AC50 [2]: > 10 µM
AC50 [3]: > 10 µM
AC50 (Vasopressin V2 receptor): > 10 µM
AC50 [4]: > 10 µM
AC50 [5]: > 10 µM
AC50 [6]: > 10 µM
AC50 (Progesterone receptor): 0.003 µM

CCN(CC)CCNC(=O)c1cc(S(C)(=O)=O)ccc1OC [TIAPRIDE]
AC50 (Adenosine receptor A1): > 30 µM
AC50 [1]: > 30 µM
AC50 [2]: > 30 µM
AC50 [3]: > 30 µM
AC50 (Vasopressin V2 receptor): > 30 µM
AC50 [4]: > 30 µM
AC50 [5]: > 30 µM
AC50 [6]: > 30 µM
AC50 (Progesterone receptor): > 30 µM

NC1CCN(c2nc3c(cc2F)c(=O)c(C(=O)O)cn3-c2ccc(F)cc2F)C1 (centres undefined) [TOSUFLOXACIN]
AC50 (Adenosine receptor A1): > 30 µM
AC50 [1]: > 30 µM
AC50 [2]: > 30 µM
AC50 [3]: > 30 µM
AC50 (Vasopressin V2 receptor): > 30 µM
AC50 [4]: > 30 µM
AC50 [5]: > 30 µM
AC50 [6]: > 30 µM
AC50 (Progesterone receptor): > 30 µM

CC1=C(C)C(=O)C(C(CCCCCC(=O)O)c2ccccc2)=C(C)C1=O (centres undefined) [SERATRODAST]
AC50 (Adenosine receptor A1): > 30 µM
AC50 [1]: > 30 µM
AC50 [2]: > 30 µM
AC50 [3]: > 30 µM
AC50 (Vasopressin V2 receptor): > 30 µM
AC50 [4]: > 30 µM
AC50 [5]: > 30 µM
AC50 [6]: > 30 µM
AC50 (Progesterone receptor): > 30 µM

C[N@+]1(CCF)[C@@H]2CC[C@H]1C[C@@H](OC(=O)C(O)(c1ccccc1)c1ccccc1)C2
AC50 (Adenosine receptor A1): > 30 µM
AC50 [1]: > 30 µM
AC50 [2]: > 30 µM
AC50 [3]: > 30 µM
AC50 (Vasopressin V2 receptor): > 30 µM
AC50 [4]: > 30 µM
AC50 [5]: > 30 µM
AC50 [6]: > 30 µM
AC50 (Progesterone receptor): > 30 µM

COc1cc2c(cc1OC)C(CCc1ccc(Cl)cc1)N(C)CC2 (centres undefined) [METHOPHOLINE]
AC50 (Adenosine receptor A1): > 30 µM
AC50 [1]: > 10 µM
AC50 [2]: > 10 µM
AC50 [3]: > 30 µM
AC50 (Vasopressin V2 receptor): > 30 µM
AC50 [4]: > 10 µM
AC50 [5]: > 30 µM
AC50 [6]: > 10 µM
AC50 (Progesterone receptor): > 30 µM

O=C1CN=C(c2ccccc2)c2cc([N+](=O)[O-])ccc2N1 [NITRAZEPAM]
AC50 (Adenosine receptor A1): > 10 µM
AC50 [1]: > 10 µM
AC50 [2]: > 10 µM
AC50 [3]: > 10 µM
AC50 (Vasopressin V2 receptor): > 10 µM
AC50 [4]: > 10 µM
AC50 [5]: > 10 µM
AC50 [6]: > 10 µM
AC50 (Progesterone receptor): > 10 µM

CC(=O)SC[C@@H](C)C(=O)N1CCC[C@H]1C(=O)N[C@@H](Cc1ccccc1)C(=O)O
AC50 (Adenosine receptor A1): > 30 µM
AC50 [1]: > 30 µM
AC50 [2]: > 30 µM
AC50 [3]: > 30 µM
AC50 (Vasopressin V2 receptor): > 30 µM
AC50 [4]: > 30 µM
AC50 [5]: > 30 µM
AC50 [6]: > 30 µM
AC50 (Progesterone receptor): > 30 µM

CCOC(=O)O[C@]1(C(=O)OCCl)CC[C@H]2[C@@H]3CCC4=CC(=O)C=C[C@]4(C)[C@H]3[C@@H](O)C[C@@]21C [LOTEPREDNOL ETABONATE]
AC50 (Adenosine receptor A1): > 30 µM
AC50 [1]: > 30 µM
AC50 [2]: > 30 µM
AC50 [3]: > 30 µM
AC50 (Vasopressin V2 receptor): > 30 µM
AC50 [4]: > 30 µM
AC50 [5]: > 30 µM
AC50 [6]: > 30 µM
AC50 (Progesterone receptor): 0.024 µM

O=C(O)CCNC(=O)c1ccccc1 [BETAMIPRON]
AC50 (Adenosine receptor A1): > 30 µM
AC50 [1]: > 30 µM
AC50 [2]: > 30 µM
AC50 [3]: > 30 µM
AC50 (Vasopressin V2 receptor): > 30 µM
AC50 [4]: > 30 µM
AC50 [5]: > 30 µM
AC50 [6]: > 30 µM
AC50 (Progesterone receptor): > 30 µM

CCCCCCCCCCCCCCCCCCCCCC(=O)Nc1ccn([C@@H]2O[C@H](CO)[C@@H](O)[C@@H]2O)c(=O)n1 [ENOCITABINE]
AC50 (Adenosine receptor A1): > 30 µM
AC50 [1]: > 30 µM
AC50 [2]: > 30 µM
AC50 [3]: > 30 µM
AC50 (Vasopressin V2 receptor): > 30 µM
AC50 [4]: > 30 µM
AC50 [5]: > 30 µM
AC50 [6]: > 30 µM
AC50 (Progesterone receptor): > 30 µM
